“Also recorded” adds a separate entry of the source. Bridges are numbered along the chain shown (N, C = ends). Where no end group is shown, it is not given here.
How the values were obtained:
mouse osteoblasts [1] = test: Proliferative response of mouse osteoblasts (WST-1); type: cell-based; details: 100 μM peptide D (acetate) or 3 μg/mL antibody; with or without 5 ng/mL BMP-2; 72-hour culture
Protocol: Mouse osteoblasts mixed with 10% FBS+αMEM (SIGMA) were seeded on a 96-well plate (2×10^3 cells/well). After cell adhesion had taken place, the medium was removed therefrom. […] After 72-hour culture, WST-1 (Roche) was added thereto in an amount 1/10 that of each medium, followed by incubation at 37° C. for 3 hours. Then, the OD value (450 nm) for each well was determined with a microplate reader (BMG Labtech) (reference wavelength: 595 nm).

mouse osteoblasts [2] = test: ALP activity determination in mouse osteoblasts; type: cell-based; details: 300 μM; differentiation medium; Day 7
Protocol: Seven days after differentiation, the culture supernatant was removed from each plate and the cells were fixed with an acetone/ethanol solution. The ALP activity was determined using p-nitrophenyl phosphate as a substrate. Specifically, a carbonate buffer (5 mM MgCl2, 50 mM NaHCO3) containing p-nitrophenyl phosphate (Nacalai) (1 mg/mL) was added to each well (100 μL/well), followed by incubation at 37° C. Then, the OD value at 405 nm was determined with the use of a microplate reader (BMG Labtech) for each well.
For experiments, a goat polyclonal mRANKL antibody (R&D, Saint Cruz), monoclonal mRANKL antibodies ((A): clone 88227 (R&D); (B): clone 12A668) (ALEXIS), and synthetic peptide D were used. As negative controls, goat IgG (ZYMED) and a control peptide were used. Synthetic peptide D and the control peptide used were the same as those used in Example 1. […] ALP activity determination was carried out as in Example 1.
Newborn mouse calvarias were immersed in an enzyme solution (0.1% collagenase (Wako)+0.2% Dispase (GODO SHUSEI CO., LTD.)), followed by shaking in a thermostatic bath at 37° C. for 5 minutes. The initial floating cell fraction was removed therefrom and a new enzyme solution (10 mL) was added thereto, followed by another instance of shaking in a thermostatic bath at 37° C. for 10 minutes. The above operations were repeated 4 times. […]

MAP kinase p38 = test: Western blotting of p38 phosphorylation in MC3T3-E1 cells; type: cell-based, mouse; details: 200 μM peptide D
Protocol: MC3T3-E1 cells mixed with 10% FBS+αMEM (SIGMA) were seeded on a 6-well plate (7.5×10^4 cells/well). […] The medium was removed at the respective time points shown in the relevant figures. PBS was added to the cells, and the cells were collected with a scraper (Falcon). A cell pellet was obtained via centrifugation at 1200 rpm for 5 min at 4° C. RIPA buffer (100 μL) was added to the collected pellet, for dissolution of the cellular membrane. Further, the resultant was centrifuged under conditions of 14500 rpm for 25 min at 4° C. The supernatant was collected as a cell extract. A portion of the cell extract was used for quantification of the protein concentration with the use of a BCA protein assay kit (PIERCE). For SDS-PAGE, a sample buffer in an amount that was ¼ that of the cell extract (Fermentas) was added thereto, followed by heating at 95° C. for 5 min. The prepared sample was applied in an amount of 7.5 or 10 μg to 10% polyacrylamide gel (BioRad), followed by electrophoresis at 170 V for 1 hour. After electrophoresis, the electrophoresed sample was transferred to a PVDF membrane (Millipore) at 80 mA for 40 min. The membrane was shaken in a blocking solution (Nacalai) at room temperature for 1 hour and then a primary antibody was added thereto, followed by shaking at room temperature for 1 hour at 4° C. for 12 hours. […]

## peptide D: cyclic peptide of SEQ ID NO: 7, 9 amino acids, two cysteine residues bound via a disulfide bond; binds to RANKL (YCWSQYLCY; disulfide 2-8 (inferred))
Mouse osteoblasts [1]
  mouse osteoblast proliferation (WST-1): promoted mouse osteoblast proliferation; also recorded: weak effects
Mouse osteoblasts [2]
  ALP activation: caused an increase in the degree of ALP activation
MAP kinase p38; 12 hours after the addition
  p38 phosphorylation: significant p38 phosphorylation
MAP kinase p38; within a short period of time after the addition
  p38 phosphorylation: no significant changes
